# Source: PubChem BioAssay (NCI)
#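 Cells were grown in 96-well plates and exposed to each compound for 48 hours at five concentrations; endpoints were interpolated linearly between bracketing concentrations, or set to the highest concentration if not reached. GI50 is the concentration that inhibits growth by half. TGI is the concentration that stops growth completely.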
# Assays:
# Assay in all cases: NCI anticancer screen, dose series, 48 h
# [1] = tested on: T-47D breast
# [2] = tested on: NCI-H226 lung
# [3] = tested on: HL-60(TB) leukemia
# [4] = tested on: SK-OV-3 ovarian
# [5] = tested on: SF-295 CNS
# [6] = tested on: RXF 393 renal
# [7] = tested on: CCRF-CEM leukemia
# [8] = tested on: UACC-62 melanoma
# [9] = tested on: MCF7 breast
# [10] = tested on: SK-MEL-28 melanoma
SMILES,GI50 [1],TGI [1],GI50 [2],TGI [2],GI50 [3],TGI [3],GI50 [4],TGI [4],GI50 [5],TGI [5],GI50 [6],TGI [6],GI50 [7],TGI [7],GI50 [8],TGI [8],GI50 [9],TGI [9],GI50 [10],TGI [10]
Nc1nc(/C=C\c2ccc([N+](=O)[O-])o2)nc(N2CCN(c3ccccc3)CC2)n1,13.5 µM,60 µM,17.5 µM,52.8 µM,7.73 µM,61.8 µM,17.1 µM,44.7 µM,22.1 µM,73.8 µM,2.94 µM,41.5 µM,8.01 µM,82.3 µM,7.36 µM,25.8 µM,3.07 µM,29.1 µM,14.1 µM,40.5 µM
CCc1ccc(NC(=O)Nc2c[nH]c3ccccc23)cc1,16.3 µM,> 82.2 µM,7.29 µM,> 52.4 µM,0.811 µM,5.48 µM,19.7 µM,> 73.2 µM,23.8 µM,> 56 µM,11.6 µM,> 59.4 µM,0.358 µM,> 100 µM,31.5 µM,> 51.7 µM,29.3 µM,> 65.5 µM,> 39 µM,> 56.6 µM
CN(C)c1ccc2nc3ccc(=[N+](C)C)cc-3oc2c1,0.582 µM,6.59 µM,2.1 µM,6.76 µM,0.269 µM,1.2 µM,6.65 µM,45.2 µM,3.74 µM,22.5 µM,10.6 µM,50.4 µM,1.21 µM,32.2 µM,2.32 µM,19.2 µM,0.368 µM,2.3 µM,5.72 µM,45.7 µM
COc1cc2nc(Cl)nc(Nc3cccc(C(=O)/C=C/c4ccccc4)c3)c2cc1OC,> 30.3 µM,> 100 µM,5.81 µM,> 100 µM,3.61 µM,> 100 µM,7.96 µM,51.7 µM,–,> 44.2 µM,2.02 µM,5.46 µM,2.45 µM,> 100 µM,2.55 µM,10.1 µM,1.81 µM,> 100 µM,5.03 µM,> 100 µM
C=C(C)[C@@H]1CC[C@]2(C(=O)NCCCN)CC[C@]3(C)[C@H](CC[C@@H]4[C@@]5(C)CC[C@H](O)C(C)(C)[C@@H]5CC[C@]43C)[C@@H]12,13.1 µM,53.2 µM,21.2 µM,> 100 µM,16.5 µM,50.7 µM,17.7 µM,49.4 µM,22.6 µM,67.3 µM,17 µM,44.1 µM,22.1 µM,> 100 µM,27.4 µM,93.2 µM,10.7 µM,95.8 µM,22.1 µM,57.8 µM
Fc1ccc(-c2nc3n(c2-c2ccncc2)CCS3)cc1,13.3 µM,> 25 µM,> 16.4 µM,> 25 µM,> 25 µM,> 25 µM,> 25 µM,> 25 µM,> 25 µM,> 25 µM,> 16.5 µM,> 25 µM,> 25 µM,> 25 µM,> 25 µM,> 25 µM,> 25 µM,> 25 µM,> 25 µM,> 25 µM
CCCN(Cc1ccc(F)cc1)c1ccc(CO)c(Cl)c1,0.119 µM,0.733 µM,0.0365 µM,0.144 µM,3.27 µM,19.2 µM,6.31 µM,19 µM,1.41 µM,9.65 µM,4.12 µM,16.8 µM,12.2 µM,30.5 µM,0.167 µM,0.907 µM,0.375 µM,12.9 µM,13.7 µM,27 µM
CCN(CC)CCOc1ccc(C(=C(C)c2ccc(Cl)cc2)c2ccc(OCCN(CC)CC)cc2)cc1,0.565 µM,1.25 µM,2.54 µM,7.32 µM,0.639 µM,1.34 µM,1.22 µM,4.11 µM,0.614 µM,1.19 µM,0.519 µM,1.01 µM,0.625 µM,1.71 µM,0.61 µM,1.18 µM,0.445 µM,0.966 µM,0.602 µM,1.1 µM
CC[C@H](Nc1nc(N)nc(C)c1C#N)c1nc2cccc(CN(C)c3ncc(C(=O)NO)cn3)c2c(=O)n1-c1ccccc1,0.242 µM,–,1.18 µM,7.07 µM,0.262 µM,3.48 µM,0.969 µM,3.22 µM,1.28 µM,3.81 µM,0.47 µM,1.33 µM,0.228 µM,> 50 µM,0.199 µM,0.897 µM,0.915 µM,> 24.5 µM,0.604 µM,3.16 µM
